{"source": "ChEMBL document CHEMBL5291721", "about": "“A preclinical secondary pharmacology resource illuminates target-adverse drug reaction associations of marketed drugs” (Nat Commun, 2023); note: assay procedure not described here", "key": {"Histamine H1 receptor": {"biological_target": "Histamine H1 receptor (Homo sapiens, UniProt P35367)", "sequence (P35367 whole entry)": "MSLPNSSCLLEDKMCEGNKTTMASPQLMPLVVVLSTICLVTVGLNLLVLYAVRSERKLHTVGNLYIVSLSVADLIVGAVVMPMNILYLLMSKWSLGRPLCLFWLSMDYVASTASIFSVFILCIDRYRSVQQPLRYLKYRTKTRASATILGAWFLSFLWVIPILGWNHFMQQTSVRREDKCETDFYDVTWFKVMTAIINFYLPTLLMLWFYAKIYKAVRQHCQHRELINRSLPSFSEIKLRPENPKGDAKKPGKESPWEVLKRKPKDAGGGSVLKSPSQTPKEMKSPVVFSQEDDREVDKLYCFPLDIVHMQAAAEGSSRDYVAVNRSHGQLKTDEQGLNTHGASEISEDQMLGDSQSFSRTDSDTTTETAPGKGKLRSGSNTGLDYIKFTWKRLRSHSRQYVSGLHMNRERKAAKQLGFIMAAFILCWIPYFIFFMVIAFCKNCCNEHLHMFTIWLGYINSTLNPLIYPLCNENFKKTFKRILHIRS", "format": "functional, cell-based"}, "[1]": {"biological_target": "cGMP-inhibited 3',5'-cyclic phosphodiesterase 3A (Homo sapiens, UniProt Q14432)", "sequence (Q14432 whole entry)": "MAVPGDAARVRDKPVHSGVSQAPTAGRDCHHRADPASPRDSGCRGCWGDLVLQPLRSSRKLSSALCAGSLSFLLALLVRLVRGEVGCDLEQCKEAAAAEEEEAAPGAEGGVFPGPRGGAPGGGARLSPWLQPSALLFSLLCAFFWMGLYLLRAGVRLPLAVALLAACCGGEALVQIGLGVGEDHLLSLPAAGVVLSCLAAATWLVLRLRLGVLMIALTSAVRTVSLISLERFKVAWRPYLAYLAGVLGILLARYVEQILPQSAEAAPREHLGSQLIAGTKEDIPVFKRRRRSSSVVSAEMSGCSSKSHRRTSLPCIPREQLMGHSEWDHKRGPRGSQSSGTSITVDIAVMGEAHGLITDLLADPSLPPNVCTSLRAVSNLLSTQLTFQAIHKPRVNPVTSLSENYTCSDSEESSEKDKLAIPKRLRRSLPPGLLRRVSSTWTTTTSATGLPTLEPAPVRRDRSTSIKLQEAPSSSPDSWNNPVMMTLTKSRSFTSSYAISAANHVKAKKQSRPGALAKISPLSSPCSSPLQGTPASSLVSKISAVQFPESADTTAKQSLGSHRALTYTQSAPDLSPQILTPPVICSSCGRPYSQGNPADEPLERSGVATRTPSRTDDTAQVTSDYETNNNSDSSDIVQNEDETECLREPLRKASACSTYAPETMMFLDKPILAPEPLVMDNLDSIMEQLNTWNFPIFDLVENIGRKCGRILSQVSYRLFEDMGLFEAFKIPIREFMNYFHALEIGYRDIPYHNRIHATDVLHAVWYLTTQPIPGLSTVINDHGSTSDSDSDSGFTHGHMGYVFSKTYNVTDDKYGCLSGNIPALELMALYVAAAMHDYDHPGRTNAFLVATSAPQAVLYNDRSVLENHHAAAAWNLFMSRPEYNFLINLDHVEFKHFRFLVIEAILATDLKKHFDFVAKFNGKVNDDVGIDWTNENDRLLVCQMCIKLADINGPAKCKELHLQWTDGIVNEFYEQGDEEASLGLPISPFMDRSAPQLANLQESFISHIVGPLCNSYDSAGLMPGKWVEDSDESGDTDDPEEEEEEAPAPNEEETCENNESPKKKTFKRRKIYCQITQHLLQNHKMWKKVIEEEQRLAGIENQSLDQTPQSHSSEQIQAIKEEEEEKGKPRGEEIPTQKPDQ", "format": "functional"}, "[2]": {"biological_target": "Prostaglandin G/H synthase 1 (Homo sapiens, UniProt P23219)", "sequence (P23219 whole entry)": "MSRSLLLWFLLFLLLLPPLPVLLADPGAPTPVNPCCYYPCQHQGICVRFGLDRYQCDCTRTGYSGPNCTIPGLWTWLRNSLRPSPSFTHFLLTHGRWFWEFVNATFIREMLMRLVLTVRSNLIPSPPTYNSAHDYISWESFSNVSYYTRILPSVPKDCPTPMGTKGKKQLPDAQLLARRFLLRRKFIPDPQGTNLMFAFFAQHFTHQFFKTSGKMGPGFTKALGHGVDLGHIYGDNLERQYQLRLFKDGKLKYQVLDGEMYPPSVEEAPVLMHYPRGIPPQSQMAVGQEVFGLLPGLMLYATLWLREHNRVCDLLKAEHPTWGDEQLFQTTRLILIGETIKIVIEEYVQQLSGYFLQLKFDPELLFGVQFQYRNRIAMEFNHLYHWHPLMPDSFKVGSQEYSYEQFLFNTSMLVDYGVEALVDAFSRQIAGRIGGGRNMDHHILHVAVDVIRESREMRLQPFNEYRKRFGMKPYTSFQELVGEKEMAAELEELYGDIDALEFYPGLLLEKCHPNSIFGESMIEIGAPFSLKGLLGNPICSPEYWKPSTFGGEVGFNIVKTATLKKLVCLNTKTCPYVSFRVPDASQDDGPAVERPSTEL", "format": "functional"}, "Estrogen receptor": {"biological_target": "T1, Estrogen receptor (Homo sapiens, UniProt P03372)", "T1 sequence (P03372 whole entry)": "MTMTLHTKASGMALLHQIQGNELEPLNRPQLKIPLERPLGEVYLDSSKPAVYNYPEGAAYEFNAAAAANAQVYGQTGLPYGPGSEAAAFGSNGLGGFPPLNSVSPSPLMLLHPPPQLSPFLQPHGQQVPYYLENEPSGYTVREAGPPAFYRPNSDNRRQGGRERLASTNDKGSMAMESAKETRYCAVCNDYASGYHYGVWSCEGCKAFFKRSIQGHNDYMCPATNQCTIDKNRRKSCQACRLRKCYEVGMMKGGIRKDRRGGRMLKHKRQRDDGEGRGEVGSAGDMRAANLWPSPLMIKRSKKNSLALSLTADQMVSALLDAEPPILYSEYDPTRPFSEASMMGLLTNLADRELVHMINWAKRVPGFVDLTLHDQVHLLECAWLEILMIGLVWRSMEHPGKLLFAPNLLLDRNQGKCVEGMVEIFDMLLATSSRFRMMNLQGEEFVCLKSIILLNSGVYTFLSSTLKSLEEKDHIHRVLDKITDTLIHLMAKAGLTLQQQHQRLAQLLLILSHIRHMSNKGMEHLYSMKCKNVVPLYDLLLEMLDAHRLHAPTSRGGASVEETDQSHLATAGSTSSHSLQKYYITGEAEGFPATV"}, "[3]": {"biological_target": "Sodium-dependent noradrenaline transporter (Homo sapiens, UniProt P23975)", "sequence (P23975 whole entry)": "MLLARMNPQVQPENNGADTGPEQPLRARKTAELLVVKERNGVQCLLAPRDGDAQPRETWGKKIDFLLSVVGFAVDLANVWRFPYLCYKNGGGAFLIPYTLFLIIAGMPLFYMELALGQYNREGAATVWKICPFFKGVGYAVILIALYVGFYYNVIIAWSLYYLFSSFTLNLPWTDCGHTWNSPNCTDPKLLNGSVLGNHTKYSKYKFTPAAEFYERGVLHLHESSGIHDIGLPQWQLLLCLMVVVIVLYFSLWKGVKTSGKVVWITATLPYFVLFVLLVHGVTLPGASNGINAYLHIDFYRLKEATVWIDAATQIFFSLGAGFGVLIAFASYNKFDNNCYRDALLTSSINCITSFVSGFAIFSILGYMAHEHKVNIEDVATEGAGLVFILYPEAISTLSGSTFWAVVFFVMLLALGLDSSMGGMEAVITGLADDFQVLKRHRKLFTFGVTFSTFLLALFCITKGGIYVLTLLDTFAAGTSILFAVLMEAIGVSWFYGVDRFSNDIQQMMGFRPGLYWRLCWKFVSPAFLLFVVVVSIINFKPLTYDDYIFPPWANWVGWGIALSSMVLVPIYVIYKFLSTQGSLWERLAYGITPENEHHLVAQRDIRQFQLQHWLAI"}, "[4]": {"biological_target": "T2, Alpha-2A adrenergic receptor (Homo sapiens, UniProt P08913)", "T2 sequence (P08913 whole entry)": "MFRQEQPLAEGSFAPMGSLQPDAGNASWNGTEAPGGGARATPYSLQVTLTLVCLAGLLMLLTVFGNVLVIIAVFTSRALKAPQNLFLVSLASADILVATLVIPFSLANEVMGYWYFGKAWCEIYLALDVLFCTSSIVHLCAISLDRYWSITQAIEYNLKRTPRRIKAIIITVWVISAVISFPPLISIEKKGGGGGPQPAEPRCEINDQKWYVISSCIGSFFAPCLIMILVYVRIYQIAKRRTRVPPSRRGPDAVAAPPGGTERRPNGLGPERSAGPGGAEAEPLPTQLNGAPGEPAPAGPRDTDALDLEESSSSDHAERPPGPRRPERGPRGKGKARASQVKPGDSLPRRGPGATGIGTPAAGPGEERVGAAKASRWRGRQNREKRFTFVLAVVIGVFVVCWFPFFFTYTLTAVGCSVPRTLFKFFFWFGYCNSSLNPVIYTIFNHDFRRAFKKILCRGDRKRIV"}, "Mu-type opioid receptor": {"biological_target": "Mu-type opioid receptor (Homo sapiens, UniProt P35372)", "sequence (P35372 whole entry)": "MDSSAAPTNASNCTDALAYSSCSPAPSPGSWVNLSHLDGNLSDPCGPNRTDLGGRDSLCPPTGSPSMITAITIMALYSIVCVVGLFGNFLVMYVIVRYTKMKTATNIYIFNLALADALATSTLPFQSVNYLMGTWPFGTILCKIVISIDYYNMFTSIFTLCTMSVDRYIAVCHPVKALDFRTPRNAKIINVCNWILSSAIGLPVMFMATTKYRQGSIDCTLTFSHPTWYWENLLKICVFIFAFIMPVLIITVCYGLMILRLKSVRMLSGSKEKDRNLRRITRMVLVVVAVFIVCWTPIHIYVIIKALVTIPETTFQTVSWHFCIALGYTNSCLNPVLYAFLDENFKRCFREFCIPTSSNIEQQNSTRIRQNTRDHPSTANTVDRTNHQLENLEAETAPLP"}, "[5]": {"biological_target": "T3, 5-hydroxytryptamine receptor 1A (Homo sapiens, UniProt P08908)", "T3 sequence (P08908 whole entry)": "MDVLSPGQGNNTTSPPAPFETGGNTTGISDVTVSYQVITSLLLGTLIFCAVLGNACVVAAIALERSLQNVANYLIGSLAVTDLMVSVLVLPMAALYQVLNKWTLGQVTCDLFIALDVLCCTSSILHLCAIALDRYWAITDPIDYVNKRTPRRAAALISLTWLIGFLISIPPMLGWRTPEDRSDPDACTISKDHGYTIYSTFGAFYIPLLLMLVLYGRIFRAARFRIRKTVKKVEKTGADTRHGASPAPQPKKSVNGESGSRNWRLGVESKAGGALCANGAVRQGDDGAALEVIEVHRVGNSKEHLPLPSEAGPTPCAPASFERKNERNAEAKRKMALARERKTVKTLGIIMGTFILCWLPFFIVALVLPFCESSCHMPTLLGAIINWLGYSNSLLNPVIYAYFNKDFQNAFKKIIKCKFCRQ"}, "Histamine H3 receptor": {"biological_target": "Histamine H3 receptor (Homo sapiens, UniProt Q9Y5N1)", "sequence (Q9Y5N1 whole entry)": "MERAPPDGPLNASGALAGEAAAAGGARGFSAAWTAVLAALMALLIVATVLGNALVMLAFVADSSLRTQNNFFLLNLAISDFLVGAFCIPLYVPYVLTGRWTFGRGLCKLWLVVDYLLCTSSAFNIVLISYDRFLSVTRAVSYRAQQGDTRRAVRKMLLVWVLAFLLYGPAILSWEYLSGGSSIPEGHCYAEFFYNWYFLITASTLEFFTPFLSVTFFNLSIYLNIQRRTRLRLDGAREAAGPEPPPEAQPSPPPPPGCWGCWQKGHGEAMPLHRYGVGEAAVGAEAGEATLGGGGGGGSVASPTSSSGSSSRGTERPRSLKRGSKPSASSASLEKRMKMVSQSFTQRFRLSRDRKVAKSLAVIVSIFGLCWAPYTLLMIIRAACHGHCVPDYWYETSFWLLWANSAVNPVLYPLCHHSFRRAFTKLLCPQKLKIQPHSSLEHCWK"}, "Glucagon receptor": {"biological_target": "Glucagon receptor (Homo sapiens, UniProt P47871)", "sequence (P47871 whole entry)": "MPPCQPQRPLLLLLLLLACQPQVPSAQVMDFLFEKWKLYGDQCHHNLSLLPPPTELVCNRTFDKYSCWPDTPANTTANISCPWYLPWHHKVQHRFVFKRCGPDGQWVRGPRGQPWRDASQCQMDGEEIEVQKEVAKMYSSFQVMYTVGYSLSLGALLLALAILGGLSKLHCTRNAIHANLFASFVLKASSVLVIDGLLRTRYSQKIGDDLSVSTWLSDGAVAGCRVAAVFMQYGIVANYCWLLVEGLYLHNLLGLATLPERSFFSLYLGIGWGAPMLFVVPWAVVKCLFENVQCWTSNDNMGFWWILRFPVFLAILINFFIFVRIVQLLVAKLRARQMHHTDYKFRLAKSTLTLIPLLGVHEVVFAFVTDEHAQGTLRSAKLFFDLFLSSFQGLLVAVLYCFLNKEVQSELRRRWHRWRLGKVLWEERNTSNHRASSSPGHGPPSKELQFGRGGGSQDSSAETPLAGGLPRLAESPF"}, "[6]": {"biological_target": "Neurotensin receptor type 1 (Homo sapiens, UniProt P30989)", "sequence (P30989 whole entry)": "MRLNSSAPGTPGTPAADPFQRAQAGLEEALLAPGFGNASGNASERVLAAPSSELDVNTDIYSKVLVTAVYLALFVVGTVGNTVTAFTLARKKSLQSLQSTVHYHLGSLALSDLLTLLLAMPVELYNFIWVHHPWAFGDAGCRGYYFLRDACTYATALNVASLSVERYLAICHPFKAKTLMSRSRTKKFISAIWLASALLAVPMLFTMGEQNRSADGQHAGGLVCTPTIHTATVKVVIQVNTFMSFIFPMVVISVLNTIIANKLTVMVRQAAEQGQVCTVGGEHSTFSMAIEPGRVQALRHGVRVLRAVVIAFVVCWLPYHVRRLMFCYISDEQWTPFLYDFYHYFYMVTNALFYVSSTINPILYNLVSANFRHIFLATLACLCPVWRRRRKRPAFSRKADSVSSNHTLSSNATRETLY"}, "[7]": {"biological_target": "T4, Neuropeptide Y receptor type 2 (Homo sapiens, UniProt P49146)", "T4 sequence (P49146 whole entry)": "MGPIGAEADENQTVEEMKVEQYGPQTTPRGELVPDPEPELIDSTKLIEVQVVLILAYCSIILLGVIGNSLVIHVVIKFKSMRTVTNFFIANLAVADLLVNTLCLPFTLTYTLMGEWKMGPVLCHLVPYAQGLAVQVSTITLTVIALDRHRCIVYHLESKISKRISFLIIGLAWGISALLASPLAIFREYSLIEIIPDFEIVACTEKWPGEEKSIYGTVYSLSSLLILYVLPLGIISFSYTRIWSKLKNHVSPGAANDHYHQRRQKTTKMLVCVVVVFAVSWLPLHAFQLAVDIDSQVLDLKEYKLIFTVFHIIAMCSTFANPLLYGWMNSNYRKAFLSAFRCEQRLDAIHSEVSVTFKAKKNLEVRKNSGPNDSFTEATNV"}, "Estrogen receptor beta": {"biological_target": "Estrogen receptor beta (Homo sapiens, UniProt Q92731)"}, "[8]": {"biological_target": "T5, Peroxisome proliferator-activated receptor gamma (Homo sapiens, UniProt P37231)", "T5 sequence (P37231 whole entry)": "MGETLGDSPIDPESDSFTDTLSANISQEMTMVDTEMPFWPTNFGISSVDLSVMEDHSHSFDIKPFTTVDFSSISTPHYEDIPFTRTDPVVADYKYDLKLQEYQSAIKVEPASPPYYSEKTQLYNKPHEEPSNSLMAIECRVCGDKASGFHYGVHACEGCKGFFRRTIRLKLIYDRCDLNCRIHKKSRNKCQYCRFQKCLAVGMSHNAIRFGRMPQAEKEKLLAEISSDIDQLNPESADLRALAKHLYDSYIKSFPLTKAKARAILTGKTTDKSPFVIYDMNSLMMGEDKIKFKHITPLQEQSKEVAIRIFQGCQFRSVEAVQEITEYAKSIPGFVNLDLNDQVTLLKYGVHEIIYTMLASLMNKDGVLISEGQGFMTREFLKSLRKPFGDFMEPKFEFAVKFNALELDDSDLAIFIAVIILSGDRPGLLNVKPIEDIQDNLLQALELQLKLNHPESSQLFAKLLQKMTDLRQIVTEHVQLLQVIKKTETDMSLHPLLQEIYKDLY", "format": "functional"}}, "data": [{"smiles": "OCc1cc(C(O)CNCCCCCCOCCCCc2ccccc2)ccc1O", "note": "(stereo not drawn) [SALMETEROL]", "values": [{"measurement": "AC50", "setting": "Histamine H1 receptor", "value": "> 30", "unit": "µM"}]}, {"smiles": "Nc1c2ccccc2nc2ccccc12", "note": "[AMINACRINE]", "values": [{"measurement": "AC50", "setting": "[1]", "value": "> 30", "unit": "µM"}, {"measurement": "AC50", "setting": "[2]", "value": "> 30", "unit": "µM"}, {"measurement": "AC50", "setting": "Estrogen receptor", "value": "> 30", "unit": "µM"}, {"measurement": "AC50", "setting": "[3]", "value": 2950, "unit": "nM"}, {"measurement": "AC50", "setting": "[4]", "value": 16.9, "unit": "µM"}, {"measurement": "AC50", "setting": "Mu-type opioid receptor", "value": 13.8, "unit": "µM"}, {"measurement": "AC50", "setting": "[5]", "value": "> 30", "unit": "µM"}, {"measurement": "AC50", "setting": "Histamine H3 receptor", "value": "> 30", "unit": "µM"}]}, {"smiles": "CC(=O)OCC(=O)[C@@]1(O)[C@H](C)C[C@H]2[C@@H]3CCC4=CC(=O)C=C[C@]4(C)[C@@]3(F)[C@@H](O)C[C@@]21C", "note": "[DEXAMETHASONE ACETATE]", "values": [{"measurement": "AC50", "setting": "Glucagon receptor", "value": "> 30", "unit": "µM"}, {"measurement": "AC50", "setting": "[6]", "value": "> 30", "unit": "µM"}, {"measurement": "AC50", "setting": "[7]", "value": "> 30", "unit": "µM"}, {"measurement": "AC50", "setting": "Estrogen receptor beta", "value": "> 30", "unit": "µM"}]}, {"smiles": "Cn1c(=O)cc(N2CCC[C@@H](N)C2)n(Cc2ccccc2C#N)c1=O", "note": "[ALOGLIPTIN]", "values": [{"measurement": "AC50", "setting": "Glucagon receptor", "value": "> 30", "unit": "µM"}, {"measurement": "AC50", "setting": "[6]", "value": "> 30", "unit": "µM"}, {"measurement": "AC50", "setting": "[7]", "value": "> 30", "unit": "µM"}, {"measurement": "AC50", "setting": "Estrogen receptor beta", "value": "> 30", "unit": "µM"}]}, {"smiles": "Oc1ccc2c(c1)[C@@]13CCCC[C@@]1(O)[C@@H](C2)N(CC1CCC1)CC3", "note": "[BUTORPHANOL]", "values": [{"measurement": "AC50", "setting": "[8]", "value": "> 30", "unit": "µM"}]}, {"smiles": "CCN1CCCC1CNC(=O)c1cc(S(=O)(=O)CC)c(N)cc1OC", "note": "(stereo not drawn) [AMISULPRIDE]", "values": [{"measurement": "AC50", "setting": "Histamine H1 receptor", "value": "> 30", "unit": "µM"}, {"measurement": "AC50", "setting": "[8]", "value": "> 30", "unit": "µM"}]}, {"smiles": "O=C(O)CCCCC1CCSS1", "note": "(stereo not drawn) [LIPOIC ACID, ALPHA]", "values": [{"measurement": "AC50", "setting": "[1]", "value": "> 30", "unit": "µM"}, {"measurement": "AC50", "setting": "[2]", "value": "> 30", "unit": "µM"}, {"measurement": "AC50", "setting": "Estrogen receptor", "value": "> 10", "unit": "µM"}, {"measurement": "AC50", "setting": "[3]", "value": "> 30000", "unit": "nM"}, {"measurement": "AC50", "setting": "[4]", "value": "> 30", "unit": "µM"}, {"measurement": "AC50", "setting": "Mu-type opioid receptor", "value": "> 30", "unit": "µM"}, {"measurement": "AC50", "setting": "[5]", "value": "> 30", "unit": "µM"}, {"measurement": "AC50", "setting": "Histamine H3 receptor", "value": "> 30", "unit": "µM"}]}]}
